Data published in patent publication US20240174679A1, “HETEROAROYL AMIDES AS LRRK2 INHIBITORS, PHARMACEUTICAL COMPOSITIONS, AND USES THEREOF” (MERCK SHARP & DOHME LLC, priority 2021, published 2024).

target: GST tagged truncated human mutant G2019S LRRK2 (Homo sapiens (Human), UniProt Q5S007, G2019S); assay: LRRK2 Km ATP LanthaScreen Assay; format: biochemical; conditions: 134 μM ATP (Km ATP), LRRKtide substrate, negative log of mean IC50 (molar)
Experimental: Unless otherwise noted, all reactions are magnetically stirred. Unless otherwise noted, when diethyl ether is used in the experiments described below, it is Fisher ACS certified material and is stabilized with BHT. Unless otherwise noted, “concentrated” and/or “solvent removed under reduced pressure” means evaporating the solvent from a solution or mixture using a rotary evaporator or vacuum pump. Unless otherwise noted, flash chromatography is carried out on a Teledyne Isco (Lincoln, NE), Analogix (Burlington, WI), or Biotage (Stockholm, SWE) automated chromatography system using a commercially available cartridge as the column. Columns may be purchased from Teledyne Isco, Analogix, Biotage, Varian (Palo Alto, CA), or Supelco (Bellefonte, PA) and are usually filled with silica gel as the stationary phase. Reversed phase preparative HPLC conditions, where used, can be found at the end of each experimental section. Aqueous solutions were concentrated on a Genevac (Ipswich, ENG) or by freeze-drying/lyophilization. Unless otherwise noted, all LRRK2 pIC50 data presented in tables refers to the LRRK2 G2019S Km ATP LanthaScreen™ assay (Life Technologies Corp., Carlsbad, CA) that is described in the Biological Assay section.
Biological Assay: LRRK2 Km ATP LanthaScreen™ Assay
Compound potency against LRRK2 kinase activity was determined using LanthaScreen™ technology from Life Technologies Corporation (Carlsbad, CA) using a GST20 tagged truncated human mutant G2019S LRRK2 in the presence of the fluorescein-labeled peptide substrate LRRKtide® (LRRK2 phosphorylated ezrin/radixin/moesin (ERM)), also from Life Technologies. The data presented for the Km ATP LanthaScreen™ Assay represents mean IC50 values based on several test results and may have reasonable deviations depending on the specific conditions and reagents used. Km is the Michaelis constant of an enzyme and is defined as the concentration of native substrate (ATP for a kinase) which permits the enzyme to achieve half Vmax (Vmax=rate of reaction when the enzyme is saturated with substrate). IC50 (half-maximal inhibitory concentration) represents the concentration of inhibitor required to inhibit LRRK2 kinase activity by 50%. Assays were performed in the presence of 134 μM ATP (Km ATP). Upon completion, the assay was stopped, and phosphorylated substrate detected with a terbium (Tb)-labeled anti-pERM antibody (cat. no. PV4898). The compound dose response was prepared by diluting a 10 mM stock of compound to a maximum concentration of 9.99 μM in 100% DMSO, followed by custom fold serial dilution in DMSO nine times. 20 nL of each dilution was spotted via a Labcyte Echo onto a 384-well black-sided plate (Corning 3575) followed by 15 μL of a 1.25 nM enzyme solution in 1× assay buffer (50 mM Tris pH 8.5, 10 mM MgCl2, 0.01% Brij-35, 1 mM EGTA, 2 mM dithiothreitol, 0.05 mM sodium orthovanadate). Following a 15-min incubation period at rt, the kinase reaction was started with the addition of 5 μL of 400 nM fluorescein-labeled LRRKtide® (LRRK2 phosphorylated ezrin/radixin/moesin (ERM)) peptide substrate and 134 μM ATP solution in 1× assay buffer. The reaction was allowed to progress at ambient temperature for 90 min. The reaction was then stopped by the addition of 20 μL of TR-FRET Dilution Buffer (Life Technologies, Carlsbad, CA) containing 2 nM Tb-labeled anti-phospho LRRKtide® (LRRK2 phosphorylated ezrin/radixin/moesin (ERM)) antibody and 10 mM EDTA (Life Technologies, Carlsbad, CA). After an incubation period of 1 h at rt, the plate was read on an EnVision® multimode plate reader (Perkin Elmer, Waltham, MA) with an excitation wavelength of 337 nm (Laser) and a reading emission at both 520 and 495 nm. Compound IC50 values were interpolated from nonlinear regression best-fits of the log of the final compound concentration, plotted as a function of the 520/495-nm emission ratio using activity base “Abase”). Abase uses a 4 parameter (4P) logistic fit based on the Levenberg-Marquardt algorithm. […]

GST tagged truncated human mutant G2019S LRRK2, sequence (Q5S007 970-2527 G2019S): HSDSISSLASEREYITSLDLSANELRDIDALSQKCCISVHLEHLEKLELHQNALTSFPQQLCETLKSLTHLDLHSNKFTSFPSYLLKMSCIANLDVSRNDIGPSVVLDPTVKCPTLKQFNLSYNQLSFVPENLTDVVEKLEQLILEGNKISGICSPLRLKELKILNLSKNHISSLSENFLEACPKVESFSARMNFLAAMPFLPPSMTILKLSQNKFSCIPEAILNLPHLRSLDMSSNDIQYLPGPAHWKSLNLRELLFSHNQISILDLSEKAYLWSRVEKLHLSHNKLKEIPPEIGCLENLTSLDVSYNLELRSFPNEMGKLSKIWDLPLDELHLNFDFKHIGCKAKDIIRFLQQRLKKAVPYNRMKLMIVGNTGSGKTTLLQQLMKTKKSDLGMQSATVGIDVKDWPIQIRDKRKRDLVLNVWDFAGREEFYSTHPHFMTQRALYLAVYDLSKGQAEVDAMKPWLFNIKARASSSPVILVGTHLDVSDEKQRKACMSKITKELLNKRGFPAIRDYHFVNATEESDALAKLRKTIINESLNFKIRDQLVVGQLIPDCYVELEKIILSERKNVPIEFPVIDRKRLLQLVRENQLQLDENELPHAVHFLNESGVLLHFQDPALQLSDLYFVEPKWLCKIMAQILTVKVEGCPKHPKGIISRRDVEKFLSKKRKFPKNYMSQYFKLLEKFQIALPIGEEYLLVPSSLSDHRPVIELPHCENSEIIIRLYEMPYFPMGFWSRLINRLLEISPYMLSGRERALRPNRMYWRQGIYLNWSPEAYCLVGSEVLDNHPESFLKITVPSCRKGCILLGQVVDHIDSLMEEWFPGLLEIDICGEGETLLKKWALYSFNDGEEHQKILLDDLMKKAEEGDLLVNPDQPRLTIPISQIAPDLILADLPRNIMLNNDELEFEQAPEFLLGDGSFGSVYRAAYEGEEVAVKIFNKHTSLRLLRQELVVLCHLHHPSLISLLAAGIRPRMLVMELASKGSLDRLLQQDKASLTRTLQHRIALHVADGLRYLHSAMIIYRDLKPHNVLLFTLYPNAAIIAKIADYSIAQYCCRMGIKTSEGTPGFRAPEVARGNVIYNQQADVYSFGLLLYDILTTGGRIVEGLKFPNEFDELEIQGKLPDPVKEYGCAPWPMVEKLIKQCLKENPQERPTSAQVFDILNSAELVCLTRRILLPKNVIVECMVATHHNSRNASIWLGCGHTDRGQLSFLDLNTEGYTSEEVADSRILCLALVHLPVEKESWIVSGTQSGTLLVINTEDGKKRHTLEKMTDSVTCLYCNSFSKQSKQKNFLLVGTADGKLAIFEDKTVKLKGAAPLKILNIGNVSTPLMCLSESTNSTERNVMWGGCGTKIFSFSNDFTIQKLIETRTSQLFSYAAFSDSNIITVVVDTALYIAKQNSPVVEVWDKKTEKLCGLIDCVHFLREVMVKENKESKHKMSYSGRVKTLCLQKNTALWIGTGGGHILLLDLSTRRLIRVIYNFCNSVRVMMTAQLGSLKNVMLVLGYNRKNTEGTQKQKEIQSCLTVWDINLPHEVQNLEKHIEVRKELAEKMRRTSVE

Structure (SMILES)	LRRK2 pIC50
Cc1cc(-n2cc(NC(=O)c3csc(-c4cn[nH]c4)n3)cn2)ccn1 [Example 8-1, N-(1-(2-Methylpyridin-4-yl)-1H-pyrazol-4-yl)-2-(1H-pyrazol-4-yl)thiazole-4-carboxamide]	7.90
CC(C)n1cc(NC(=O)c2csc(-c3cn[nH]c3)n2)c(OCC(F)F)n1 [Example 1-46, N-[3-(2,2-difluoroethoxy)-1-(1-methylethyl)-1H-pyrazol-4-yl]-2-(1H-pyrazol-4-yl)-1,3-thiazole-4-carboxamide]	7.57
O=C(Nc1cnn(C2CCC2)c1)c1cccc(N2CCCC2)n1 [Example 4-16, N-(1-cyclobutyl-1H-pyrazol-4-yl)-6-(pyrrolidin-1-yl)picolinamide]	6.04
O=C(Nc1cnn(Cc2ccncc2)c1)c1csc(-c2cn[nH]c2)n1 [Example 7-24, 2-(1H-pyrazol-4-yl)-N-[1-(pyridin-4-ylmethyl)-1H-pyrazol-4-yl]-1,3-thiazole-4-carboxamide]	7.30
Cc1cnccc1-n1cc(NC(=O)c2csc(-c3cn[nH]c3)n2)cn1 [Example 8-2, N-[1-(3-methylpyridin-4-yl)-1H-pyrazol-4-yl]-2-(1H-pyrazol-4-yl)-1,3-thiazole-4-carboxamide]	7.74
O=C(Nc1cn(CC2CC2(F)F)nc1C(F)F)c1csc(-c2cn[nH]c2)n1 (stereo not drawn) [Example 7-29, N-{1-[(2,2-difluorocyclopropyl)methyl]-3-(difluoromethyl)-1H-pyrazol-4-yl}-2-(1H-pyrazol-4-yl)-1,3-thiazole-4-carboxamide]	7.78
Cn1nccc1-c1cccc(C(=O)Nc2cnn(CC3CCC3)c2)n1 [Example 9-20, N-[1-(cyclobutylmethyl)-1H-pyrazol-4-yl]-6-(1-methyl-1H-pyrazol-5-yl)pyridine-2-carboxamide]	5.07
Cn1cc(NC(=O)c2csc(-c3cn[nH]c3)n2)cn1 [Example 4-15, N-(1-methyl-1H-pyrazol-4-yl)-2-(1H-pyrazol-4-yl)thiazole-4-carboxamide]	7.28
COc1nn(CC2CC2(F)F)cc1NC(=O)c1csc(-c2cn[nH]c2)n1 (stereo not drawn) [Example 7-39, N-{1-[(2,2-difluorocyclopropyl)methyl]-3-methoxy-1H-pyrazol-4-yl}-2-(1H-pyrazol-4-yl)-1,3-thiazole-4-carboxamide]	7.74
COC(=O)c1nn(C)cc1NC(=O)c1csc(-c2cn[nH]c2)n1 [Example 1-19, methyl 1-methyl-4-({[2-(1H-pyrazol-4-yl)-1,3-thiazol-4-yl]carbonyl}amino)-1H-pyrazole-3-carboxylate]	8.66
O=C(Nc1cnn(C2CCC2)c1)c1coc(-c2cn[nH]c2)n1 [Example 1-33, N-(1-cyclobutyl-1H-pyrazol-4-yl)-2-(1H-pyrazol-4-yl)-1,3-oxazole-4-carboxamide]	7.13
Cc1cc(-n2cc(NC(=O)c3csc(-c4cn[nH]c4)n3)cn2)cc(C)n1 [Example 8-4, N-[1-(2,6-dimethylpyridin-4-yl)-1H-pyrazol-4-yl]-2-(1H-pyrazol-4-yl)-1,3-thiazole-4-carboxamide]	7.82
O=C(Nc1cnn(CC2CCC2)c1)c1cccc(-c2cnn(Cc3ccccn3)c2)n1 [Example 9-8, N-[1-(cyclobutylmethyl)-1H-pyrazol-4-yl]-6-[1-(pyridin-2-ylmethyl)-1H-pyrazol-4-yl]pyridine-2-carboxamide]	6.54
Cc1nn(C2CCC2)cc1NC(=O)c1csc(-c2cnn(C)c2)n1 [Example 12-5, N-(1-cyclobutyl-3-methyl-1H-pyrazol-4-yl)-2-(1-methyl-1H-pyrazol-4-yl)-1,3-thiazole-4-carboxamide]	7.30
O=C(Nc1cnn(CC2CCC2)c1)c1cccc(-c2ccnnc2)n1 [Example 9-19, N-[1-(cyclobutylmethyl)-1H-pyrazol-4-yl]-6-pyridazin-4-ylpyridine-2-carboxamide]	5.22
O=C(Nc1cnn(CC2CCC2)c1)c1cccc(-c2cnn3c2CCCC3)n1 [Example 9-13, N-[1-(cyclobutylmethyl)-1H-pyrazol-4-yl]-6-(4,5,6,7-tetrahydropyrazolo [1,5-a]pyridin-3-yl)pyridine-2-carboxamide]	7.68
CS(=O)(=O)CC1(Cn2cc(NC(=O)c3csc(-c4cn[nH]c4)n3)cn2)CCC1 [Example 1-44, N-[1-({1-[(methylsulfonyl)methyl]cyclobutyl}methyl)-1H-pyrazol-4-yl]-2-(1H-pyrazol-4-yl)-1,3-thiazole-4-carboxamide]	7.91
Cn1cc(-c2nc(C(=O)Nc3cn(C4CCC4)nc3C3CC3)cs2)cn1 [Example 12-2, N-(1-cyclobutyl-3-cyclopropyl-1H-pyrazol-4-yl)-2-(1-methyl-1H-pyrazol-4-yl)-1,3-thiazole-4-carboxamide]	7.76
O=C(Nc1cnn(CC2CCC2)c1)c1cccc(-c2cnsc2)n1 [Example 9-15, N-[1-(cyclobutylmethyl)-1H-pyrazol-4-yl]-6-isothiazol-4-ylpyridine-2-carboxamide]	6.66
COc1nn(CC(F)F)cc1NC(=O)c1csc(-c2cn[nH]c2)n1 [Example 7-20, N-[1-(2,2-difluoroethyl)-3-methoxy-1H-pyrazol-4-yl]-2-(1H-pyrazol-4-yl)-1,3-thiazole-4-carboxamide]	7.58
O=C(Nc1cnn(Cc2ccc(F)cc2)c1)c1coc(-c2cn[nH]c2)n1 [Example 1-45, N-[1-(4-fluorobenzyl)-1H-pyrazol-4-yl]-2-(1H-pyrazol-4-yl)-1,3-oxazole-4-carboxamide]	6.77
CC(C)n1cc(NC(=O)c2csc(-c3cn[nH]c3)n2)c(OCC(F)(F)F)n1 [Example 1-7, N-[1-(1-methylethyl)-3-(2,2,2-trifluoroethoxy)-1H-pyrazol-4-yl]-2-(1H-pyrazol-4-yl)-1,3-thiazole-4-carboxamide]	7.17
O=C(Nc1cnn(CC2CCNCC2)c1)c1csc(-c2cn[nH]c2)n1 [Example 7-4, N-{1-[(piperidin-4-yl)methyl]-1H-pyrazol-4-yl}-2-(1H-pyrazol-4-yl)-1,3-thiazole-4-carboxamide]	6.79
O=C(Nc1cnn(CC2C3CCC2CNC3)c1)c1csc(-c2cn[nH]c2)n1 (stereo not drawn) [Example 7-43, N-{1-[(3-azabicyclo[3.2.1]octan-8-yl)methyl]-1H-pyrazol-4-yl}-2-(1H-pyrazol-4-yl)-1,3-thiazole-4-carboxamide]	6.87
N#CCn1cc(NC(=O)c2csc(-c3cn[nH]c3)n2)c(C(F)F)n1 [Example 7-27, N-[1-(cyanomethyl)-3-(difluoromethyl)-1H-pyrazol-4-yl]-2-(1H-pyrazol-4-yl)-1,3-thiazole-4-carboxamide]	7.50
CSCC1(Cn2cc(NC(=O)c3csc(-c4cn[nH]c4)n3)cn2)CCC1 [Example 1-27, N-[1-({1-[(methylsulfanyl)methyl]cyclobu-tyl}methyl)-1H-pyrazol-4-yl]-2-(1H-pyrazol-4-yl)-1,3-thiazole-4-carboxamide]	7.77

same assay, conditions: 134 μM ATP (Km ATP), LRRKtide substrate, negative log of mean IC50 (molar), read-out: LRRK2 pIC50 (converted)

Structure (SMILES)	IC50 [nM]
O=C(Nc1cnn(C2CCC2)c1)c1csc(-n2cccn2)n1 [Example 11-1, N-(1-Cyclobutyl-1H-pyrazol-4-yl)-2-(1H-pyrazol-1-yl)thiazole-4-carboxamide]	100
